The assay has as its target T1, mouse TRPM3α2 (mTRPM3) ion channel (Mus musculus, UniProt J9SQF3).
T1 construct: expressed in transfected cells; host or cells: flip-in HEK293
Nature of the assay: TRPM3 ion channel driven Ca2+ uptake (Fluo-4 AM assay, pregnenolone sulfate stimulated). The following applies: TRPM3 overexpressing flip-in HEK293 cells, channel opened with pregnenolone sulfate (PS) 50 μM, 2.4 mM Ca2+. Format: cell-based. The procedure:
In order to monitor the inhibition of the mouse TRPM3α2 (mTRPM3) ion channel by the compounds of the invention, a cellular system making use of an mTRPM3alpha2 or hTRPM3 overexpressing cell line (flip-in HEK293) was used. The TRPM3 channel was stimulated/opened with Pregnenolone sulfate (PS) (50 μM) which results in Ca^2+ influx.
For mTRPM3, the intracellular Ca^2+ was measured with a Calcium responsive dye, Fluor-4 AM ester (Invitrogen). Cells were cultured until a confluence of 80-90%, washed with Versene (Invitrogen) and detached from the surface by a short incubation with 0.05% Trypsin (Invitrogen). The trypsination process was stopped by the addition of complete cell culture medium (DMEM, glutamax, 10% FCS, NEAA, Pen-Strep). Cells were collected and resuspended in Krebs buffer without Calcium at RT.
Prior the cell seeding (±2000 cells/well into a black, 384 well plate (Greiner)) the diluted compound was added in the assay plate, together with the PS dissolved in Krebs buffer containing Calcium. […] Directly after cell addition the plates were read on an Envision fluorescence reader (Perkin Elmer) by an Excitation of 485 nm and emission at 535 nm.
Channel inhibition was calculated compared to a non-PS stimulated control versus a condition stimulated with PS (50 μM) with vehicle. The ability of a the compounds of the invention to inhibit this activity was determined as: Percentage inhibition=[1−((RFU determined for sample with test compound present−RFU determined for sample with positive control inhibitor) divided by (RFU determined in the presence of vehicle−RFU determined for sample with positive control inhibitor))]*100.
The activities of the Example compounds […] tested are depicted in the table below. The activity ranges A, B and C refer to IC50 values in the Fluo-4 AM assay as follows: […]
T1 sequence (J9SQF3 1-1709 isoform J9SQF3-12): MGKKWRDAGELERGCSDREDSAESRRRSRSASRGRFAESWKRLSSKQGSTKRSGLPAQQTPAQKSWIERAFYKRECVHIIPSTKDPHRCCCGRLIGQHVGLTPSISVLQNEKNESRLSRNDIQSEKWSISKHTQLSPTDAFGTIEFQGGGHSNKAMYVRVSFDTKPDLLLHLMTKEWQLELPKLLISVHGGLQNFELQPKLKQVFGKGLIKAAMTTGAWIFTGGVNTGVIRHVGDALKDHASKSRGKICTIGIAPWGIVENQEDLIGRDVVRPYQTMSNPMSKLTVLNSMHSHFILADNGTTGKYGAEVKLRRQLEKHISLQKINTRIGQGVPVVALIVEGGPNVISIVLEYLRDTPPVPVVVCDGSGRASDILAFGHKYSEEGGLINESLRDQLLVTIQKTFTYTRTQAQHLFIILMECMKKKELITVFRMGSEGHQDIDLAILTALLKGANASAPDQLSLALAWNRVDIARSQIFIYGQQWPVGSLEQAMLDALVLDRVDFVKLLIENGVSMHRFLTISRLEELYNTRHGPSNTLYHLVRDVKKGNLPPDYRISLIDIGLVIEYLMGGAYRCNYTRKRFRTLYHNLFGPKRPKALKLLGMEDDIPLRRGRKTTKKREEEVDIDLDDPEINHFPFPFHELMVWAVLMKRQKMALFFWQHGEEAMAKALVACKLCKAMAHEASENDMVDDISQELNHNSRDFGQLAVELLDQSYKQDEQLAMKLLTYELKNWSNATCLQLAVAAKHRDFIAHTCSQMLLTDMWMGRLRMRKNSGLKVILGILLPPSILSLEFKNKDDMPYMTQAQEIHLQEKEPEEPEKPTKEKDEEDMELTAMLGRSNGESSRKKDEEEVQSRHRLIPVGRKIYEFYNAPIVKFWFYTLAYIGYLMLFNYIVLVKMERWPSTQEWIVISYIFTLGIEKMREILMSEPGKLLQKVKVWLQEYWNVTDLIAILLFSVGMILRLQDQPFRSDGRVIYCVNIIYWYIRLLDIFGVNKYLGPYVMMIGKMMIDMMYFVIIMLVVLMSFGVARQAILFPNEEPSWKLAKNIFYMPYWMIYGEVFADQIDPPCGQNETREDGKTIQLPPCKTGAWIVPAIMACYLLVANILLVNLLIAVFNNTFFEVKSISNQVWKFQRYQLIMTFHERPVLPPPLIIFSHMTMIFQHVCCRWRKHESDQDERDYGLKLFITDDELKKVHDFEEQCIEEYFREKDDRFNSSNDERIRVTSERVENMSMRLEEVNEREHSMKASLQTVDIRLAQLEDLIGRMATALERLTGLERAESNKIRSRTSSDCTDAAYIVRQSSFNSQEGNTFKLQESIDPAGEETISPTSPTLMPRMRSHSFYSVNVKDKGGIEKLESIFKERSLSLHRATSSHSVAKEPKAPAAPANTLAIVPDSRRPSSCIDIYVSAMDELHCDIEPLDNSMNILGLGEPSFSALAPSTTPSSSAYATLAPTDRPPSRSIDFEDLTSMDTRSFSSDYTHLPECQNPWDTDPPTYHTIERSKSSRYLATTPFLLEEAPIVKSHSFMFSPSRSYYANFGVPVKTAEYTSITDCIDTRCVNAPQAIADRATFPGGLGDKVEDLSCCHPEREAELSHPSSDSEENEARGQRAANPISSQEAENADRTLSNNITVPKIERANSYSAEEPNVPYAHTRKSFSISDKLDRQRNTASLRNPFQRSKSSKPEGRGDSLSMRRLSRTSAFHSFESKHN
Turning to `Cc1cc2ccc(OCc3ccccc3F)cn2c1C(=O)NC1(CO)CCNC1=O` (single isomer, unassigned) [Cpd 007 - En1], the 50% inhibitory concentration (IC50) was less than 1 µM. In the case of `Cc1cc2ccc(OCc3cccnc3C(F)(F)F)cn2c1C(=O)NC(CO)CC(F)(F)F` (single isomer, unassigned) [Cpd 044 - En1], the IC50 is more than 20 µM. For the compound `CC(=O)C(C)NC(=O)c1c(C)cc2ccc(OCC(F)F)cn12` (single isomer, unassigned) [Cpd 028 - En1], the IC50 was more than 20 µM. Take `Cc1cc2ccc(OCc3cnccn3)cn2c1C(=O)NC1(CO)CCNC1=O` (single isomer, unassigned) [Cpd 046 - En1]: the concentration for half-maximal inhibition (IC50) was less than 1 µM. Turning to `Cc1cc2ccc(OCC(F)F)cn2c1C(=O)NC1CNCCC1(F)F` (single isomer, unassigned) [Cpd 027 - En1], the IC50 fell in the range of 1 to 20 µM. Then `Cc1cc2ccc(OCc3c(F)cnn3C)cn2c1C(=O)NC1(CO)CCNC1=O` (single isomer, unassigned) [Cpd 040 - En2], with 1 to 20 µM. As for `Cc1cc2ccc(OCc3ccccn3)cn2c1C(=O)NC1CNCCC1(F)F` (single isomer, unassigned) [Cpd 017 - En1, N-(4,4-difluoropiperidin-3-yl)-2-methyl-6-[(pyridin-2-yl)methoxy]indolizine-3-carboxamide], the figure is 1 to 20 µM. Then `CC(=O)C(C)NC(=O)c1c(C)cc2ccc(OCC3CC3)cn12` (single isomer, unassigned) [Cpd 023 - En2], with 1 to 20 µM; and `Cc1cc2ccc(OCC3CC3)cn2c1C(=O)NC(C)(CO)CO` [Cpd 020, 6-(cyclopropylmethoxy)-N-(1,3-dihydroxy-2-methylpropan-2-yl)-2-methylindolizine-3-carboxamide], with less than 1 µM. `COc1ncccc1COc1ccc2cc(C)c(C(=O)NC3(CO)CCNC3=O)n2c1` (single isomer, unassigned) [Cpd 038 - En1] returned a half-maximal inhibitory concentration (IC50) of less than 1 µM. As for `Cc1cc2ccc(OCc3ccccc3F)cn2c1C(=O)NC(C)(CO)C(N)=O` (single isomer, unassigned) [Cpd 005 - En1, 2-({6-[(2-fluorophenyl)methoxy]-2-methylindolizin-3-yl}formamido)-3-hydroxy-2-methylpropanamide], the figure is less than 1 µM.

`Cc1cc2ccc(OCc3ccccn3)cn2c1C(=O)NC(C)(CO)CC(F)F` (single isomer, unassigned) [Cpd 036 - En2] gave a half-inhibitory concentration (IC50) of 1 to 20 µM. In turn, `Cc1cc2ccc(OCc3ccccn3)cn2c1C(=O)NC(C)(CO)C(N)=O` (single isomer, unassigned) [Cpd 014 - En1] came in with a half-maximal inhibitory concentration (IC50) of less than 1 µM. As for `Cc1cc2ccc(OCc3ccccn3)cn2c1C(=O)NC(C)(CO)CC(F)F` (single isomer, unassigned) [Cpd 036 - En1], the figure is less than 1 µM; as for `COCC(C)(CO)NC(=O)c1c(C)cc2ccc(OCc3ccccn3)cn12` (single isomer, unassigned) [Cpd 032 - En2], less than 1 µM.

`Cc1cc2ccc(OCc3ccccn3)cn2c1C(=O)NC(C)(CO)C(N)=O` (single isomer, unassigned) [Cpd 014 - En2] came in with an IC50 of 1 to 20 µM. Regarding `Cc1cc2ccc(OCc3c(F)cnn3C)cn2c1C(=O)NC1(CO)CCNC1=O` (single isomer, unassigned) [Cpd 040 - En1], the concentration for half-maximal inhibition (IC50) is less than 1 µM. As for `Cc1cc2ccc(OCc3c(F)cnn3C)cn2c1C(=O)NC(CO)CC(F)(F)F` (single isomer, unassigned) [Cpd 045 - En2], the figure is more than 20 µM; as for `Cc1cc2ccc(OCc3ccccn3)cn2c1C(=O)NC(C)C(N)=O` (single isomer, unassigned) [Cpd 018 - En2], 1 to 20 µM; as for `COc1ncccc1COc1ccc2cc(C)c(C(=O)NC(CO)CC(F)(F)F)n2c1` (single isomer, unassigned) [Cpd 043 - En2], more than 20 µM. Then `Cc1cc2ccc(OCc3ccccc3)cn2c1C(=O)NC(C)(CO)CC(F)F` (single isomer, unassigned) [Cpd 035 - En1], with less than 1 µM; and `Cc1cc2ccc(OCc3ccccc3F)cn2c1C(=O)NC1CNCCC1(F)F` (stereo not drawn) [Cpd 008, N-(4,4-difluoropiperidin-3-yl)-6-[(2-fluorophenyl)methoxy]-2-methylindolizine-3-carboxamide], with 1 to 20 µM; and `Cc1ncc(COc2ccc3cc(C)c(C(=O)NC(C)(CO)CO)n3c2)s1` [Cpd 030, N-(1,3-dihydroxy-2-methylpropan-2-yl)-2-methyl-6-[(2-methyl-1,3-thiazol-5-yl)methoxy]indolizine-3-carboxamide], with less than 1 µM. On to `Cc1cc2ccc(OCC3CC3)cn2c1C(=O)NC1(CO)CCNC1=O` (single isomer, unassigned) [Cpd 021 - En1], for which the half-maximal inhibitory concentration (IC50) was less than 1 µM.

For the compound `Cc1cc2ccc(OCc3ccccc3F)cn2c1C(=O)NC1(CO)CCNC1=O` (single isomer, unassigned) [Cpd 007 - En2], the IC50 fell in the range of 1 to 20 µM.

In turn, `Cc1cc2ccc(OCc3cccnc3)cn2c1C(=O)NC(CO)CC(F)(F)F` (single isomer, unassigned) [Cpd 042 - En1] came in with a 50% inhibitory concentration (IC50) of less than 1 µM.

Compound `Cc1ncc(COc2ccc3cc(C)c(C(=O)NC(C)(CO)C(N)=O)n3c2)s1` (single isomer, unassigned) [Cpd 029 - En1, 3-hydroxy-2-methyl-2-({2-methyl-6-[(2-methyl-1,3-thiazol-5-yl)methoxy]indolizin-3-yl}formamido)propanamide] displayed an IC50 of less than 1 µM. The compound `Cc1cc2ccc(OCc3ccccn3)cn2c1C(=O)NC(CO)C(N)=O` (single isomer, unassigned) [Cpd 033 - En1] registered a 50% inhibitory concentration (IC50) of 1 to 20 µM. As for `COc1ncccc1COc1ccc2cc(C)c(C(=O)NC(CO)CC(F)(F)F)n2c1` (single isomer, unassigned) [Cpd 043 - En1], the figure is less than 1 µM. As for `Cc1cc2ccc(OCc3scnc3C)cn2c1C(=O)NC1(CO)CCOCC1` [Cpd 001, N-[4-(hydroxymethyl)oxan-4-yl]-2-methyl-6-[(4-methyl-1,3-thiazol-5-yl)methoxy]indolizine-3-carboxamide], the figure is 1 to 20 µM; as for `Cc1cc2ccc(OCc3cccnc3C(F)(F)F)cn2c1C(=O)NC1(CO)CCNC1=O` (single isomer, unassigned) [Cpd 039 - En1], less than 1 µM.

In turn, `Cc1cc2ccc(OCc3cccnc3)cn2c1C(=O)NC(CO)CC(F)(F)F` (single isomer, unassigned) [Cpd 042 - En2] came in with an IC50 of 1 to 20 µM. Take `Cc1cc2ccc(OCC3CC3)cn2c1C(=O)NC(C)(CO)C(N)=O` (single isomer, unassigned) [Cpd 019 - En1]: the concentration for half-maximal inhibition (IC50) was less than 1 µM. Then `Cc1cc2ccc(OCc3cccnc3)cn2c1C(=O)NC1(CO)CCNC1=O` (single isomer, unassigned) [Cpd 037 - En2], with 1 to 20 µM; and `Cc1ncc(COc2ccc3cc(C)c(C(=O)NC(C)C(N)=O)n3c2)s1` (stereo not drawn) [Cpd 031, 2-({2-methyl-6-[(2-methyl-1,3-thiazol-5-yl)methoxy]indolizin-3-yl}formamido)propanamide], with 1 to 20 µM. As for `Cc1ncc(COc2ccc3cc(C)c(C(=O)NC(C)(CO)C(N)=O)n3c2)s1` (single isomer, unassigned) [Cpd 029 - En2, 3-hydroxy-2-methyl-2-({2-methyl-6-[(2-methyl-1,3-thiazol-5-yl)methoxy]indolizin-3-yl}formamido)propanamide], the figure is 1 to 20 µM.

Usually IC50 stands for the concentration that gives 50% inhibition. Low values mean greater potency, high ones weaker potency.

(Values after US20250376469A1, “INDOLIZINE DERIVATIVES FOR TREATING TRPM3-MEDIATED DISORDERS” (Katholieke Universiteit Leuven, priority 2022, published 2025).)
